The structures appear in SMILES notation. Counter-ions that a name gives are not always drawn.

The values below come from patent US8247407B2, priority 2007, dated 2012).

Test [1] concerns rats with alloxan diabetes. The test can be described thus: Hypoglycemic activity, alloxan diabetes model in rats (Example 1). The class given is in vivo, rat. The method, then: The pharmaceutical compositions for determination of anti-diabetic action had the following composition: active compound—1 g, potato starch—1 g, water—100 ml.
(§1) The comparison of anti-diabetic action of compounds was carried out using a standard model of alloxan diabetes and metmorphin as a comparative drug. The alloxan diabetes was induced by a single subcutaneous injection of water solution of alloxan hydrate (ICN Biomedicals, USA) at a dose of 150 mg/kg to rats weighting 180-200 g that have fasted for 24 hours. The following animal groups were studied: intact rats, diabetic non-treated rats, diabetic rats receiving Polfa-Kutno Ltd.″ metmorphin daily (for 23 days, 200 mg/kg); diabetic rats receiving daily (for 20 days) the abovementioned pharmaceutical compositions containing, as an active components, the compounds described in this invention: MC-200-MC-225. The compounds were administered intragastrically once a day in starch gel at a dose of 50 mg/kg rat weight.
(§2) The experimental drug doses were selected assuming the expected therapeutic doses for man and previously determined toxic doses (LD50 of studied compounds was approximately 500-1,000 mg/kg). The metmorphin dose for rats was extrapolated from the therapeutic dose for man. Drug administration was started on the third day after alloxan injection when blood glucose level increased approximately 3-fold as compared to control value. Each group consisted of 20 animals of both genders.

Test [2] deals with white rats with experimental diabetes (alloxan diabetes). The test can be described thus: Anti-diabetic, hypolipidemic and hypocholesteremic activity, alloxan diabetes model in rats (Example 2). Type of test: in vivo, rat. The conditions noted are these: compounds 50 mg/kg, metmorphin 200 mg/kg daily. The protocol: as §1, §2
Pharmaceutical compositions for determination of anti-diabetic action had the same composition as that given in Example I.
The comparison of the anti-diabetic action of compounds was carried out using a standard model of alloxan diabetes, as described in Example I, and metmorphin as a comparative drug.
In the course of experiment, the following parameters were recorded: animal general condition, water consumption, body mass, levels of glucose, total lipids, tri-glycerides, serum blood cholesterol, and glycosylated hemoglobin, using the generally accepted techniques (Laboratory methods of studies in clinical practice, V. V. Menshikov, Ed., Moscow, “Medicine”, 1987).

Where [3] appears, read: diabetic rats' blood, in 10 days, compounds 50 mg/kg intragastrically once a day in starch gel, metmorphin 200 mg/kg daily.
The mark [4] stands for this setting: diabetic rats' blood, in 20 days, compounds 50 mg/kg intragastrically once a day in starch gel, metmorphin 200 mg/kg daily.

In the case of `CCOC(=O)c1c(CN(C)C)n(C)c2cc(-c3cccnc3)c3c(c12)CN(C)CO3`, the “Glucose content, mmol/l, in 10 days” value in test [1] (setting [3]) was 5.6 ± 0.3 mmol/L. For the same compound, in test [1] (setting [4]), the “Glucose content, mmol/l, in 20 days” value was found to be 5.4 ± 0.5 mmol/L.
`CCOC(=O)c1c(CSc2ccc(C)cc2)n(C)c2cc(Br)c(O)c(CN(C)C)c12` [MC-201, 1-methyl-2-p-toluilthiomethyl-3-carbethoxy-4-dimethyl-aminomethyl-5-hydroxy-6-bromoindole]: the “Glucose content, mmol/l, in 10 days” value in test [1] (setting [3]) stood at 6.4 ± 0.4 mmol/L. Besides, the “Glucose content, mmol/l, in 20 days” value in test [1] (setting [4]) is 6.2 ± 0.3 mmol/L.
In the case of `CCOC(=O)c1c(CSc2ccc(CC)cc2)n(C)c2cc(Br)c(O)c(CN(C)C)c12` [MC-202, 1-methyl-2-(p-ethyl)-phenyl-thiomethyl-3-carbethoxy-4-dimethylaminomethyl-5-hydroxy-6-bromoindole], in test [1] (setting [3]), the “Glucose content, mmol/l, in 10 days” value is 7.3 ± 0.5 mmol/L. Further, in test [1] (setting [4]), the “Glucose content, mmol/l, in 20 days” value stood at 7.0 ± 0.4 mmol/L.
For `CCOC(=O)c1c(CSc2ccccc2)n(-c2ccc(C)cc2)c2cc(Br)c(O)c(CN(C)C)c12` [MC-204, 1-p-toluyl-2-phenylthiomethyl-3-carbethoxy-4-dimethylaminomethyl-5-hydroxy-6-bromoindole] the same measures were 6.4 ± 0.3 mmol/L and 6.2 ± 0.3 mmol/L.
For `CCOC(=O)c1c(CSc2ccccc2)n(Cc2ccccc2)c2cc(Br)c(O)c(CN(C)C)c12` [MC-205, 1-benzyl-2-phenylthiomethyl-3-carbethoxy-4-dimethylaminomethyl-5-hydroxy-6-bromoindole] the same measures were 8.4 ± 0.6 mmol/L and 8.1 ± 0.5 mmol/L.
For `CCOC(=O)c1c(CSCc2ccccc2)n(C)c2cc(Br)c(O)c(CN(C)C)c12` [MC-206, 1-methyl-2-benzylthiomethyl-3-carbethoxy-4-dimethylaminomethyl-5-hydroxy-6-bromoindole] the same measures were 11.2 ± 0.7 mmol/L and 10.8 ± 0.6 mmol/L.
Regarding `CCOC(=O)c1c(CN2CCCC2)n(C)c2cc(-c3cccnc3)c(O)cc12` [MC-207, 1-methyl-2-pyrrolidinyl-1-methyl-3-carbethoxy-5-hydroxy-6-(pyridine-3-yl)indole], in test [1] (rat, in vivo), the “Glucose content, mmol/l, in 10 days” value stood at 5.5 ± 0.2 mmol/L and the “Glucose content, mmol/l, in 20 days” value was determined as 5.0 ± 0.3 mmol/L. In test [2] (in 10 days), this compound yielded a Body mass of 186 ± 10 g, a Cholesterol of 2.5 ± 0.3 mmol/L, a Daily water consumption of 24 ± 5 mL and a Glucose of 5.5 ± 0.3 mmol/L. In test [2] (in 10 days), the Glycosylated hemoglobin came out at 5.1 ± 0.3 mol %, the “Percent of survived rats” value came out at 100%, the Total lipids was 10.2 ± 0.5 g/L and the Tri-glycerides came out at 2.5 ± 0.2 mmol/L. Further, the β-lipoproteins in test [2] (in 10 days) amounted to 2.0 ± 0.2 g/L. In test [2] (in 20 days), the Body mass came to 182 ± 10 g, the Cholesterol amounted to 1.5 ± 0.2 mmol/L, the Daily water consumption came out at 20 ± 5 mL and the Glucose came out at 5.0 ± 0.2 mmol/L. In addition, in test [2] (in 20 days), the Glycosylated hemoglobin was found to be 5.0 ± 0.3 mol %, the “Percent of survived rats” value is 90%, the Total lipids was determined as 10.2 ± 0.3 g/L and the Tri-glycerides amounted to 1.8 ± 0.2 mmol/L. In test [2] (in 20 days), this compound had a β-lipoproteins of 2.1 ± 0.2 g/L.
In the case of `CCOC(=O)c1c(CN(C)C)n(C)c2cc(-c3cccnc3)c(O)cc12` [MC-208, 1-methyl-2-dimethylaminomethyl-3-carbethoxy-5-hydroxy-6-(pyridine-3-yl)indole], the “Glucose content, mmol/l, in 10 days” value in test [1] (setting [3]) came to 9.8 ± 0.4 mmol/L. In test [1] (setting [4]), the “Glucose content, mmol/l, in 20 days” value was found to be 9.5 ± 0.4 mmol/L.
Take `CCOC(=O)c1c(CS(=O)(=O)c2ccccc2)n(C)c2cc(-c3cccnc3)c(O)c(CN(C)C)c12` [MC-210, 1-methyl-2-phenylsulfonylmethyl-3-carbethoxy-4-dimethylaminomethyl-5-hydroxy-6-(pyridine-3-yl)indole]: the “Glucose content, mmol/l, in 10 days” value in test [1] (setting [3]) is 5.4 ± 0.2 mmol/L. Moreover, in test [1] (setting [4]), the “Glucose content, mmol/l, in 20 days” value was determined as 5.3 ± 0.3 mmol/L.
Take `CCOC(=O)c1c(CN(C)C)n(C)c2cc(-c3cccnc3)c(O)c(CN3CCCC3)c12` [MC-211, 1-methyl-2-dimethylaminomethyl-3-carbethoxy-4-pyrrolidinomethyl-5-hydroxy-6-(pyridine-3-yl)indole trihydrochloride]: the “Glucose content, mmol/l, in 10 days” value in test [1] (setting [3]) is 5.0 ± 0.2 mmol/L. Also, the “Glucose content, mmol/l, in 20 days” value in test [1] (setting [4]) was 4.8 ± 0.2 mmol/L.
For `CCOC(=O)c1c(CN2CCCC2)n(C)c2cc(-c3cccnc3)c(O)c(CN(C)C)c12` [MC-212, 1-methyl-2-pyrrolidinomethyl-3-carbethoxy-4-dimethylaminomethyl-5-hydroxy-6-(pyridine-3-yl)indole trihydrochloride] the same measures were 5.2 ± 0.3 mmol/L and 5.1 ± 0.3 mmol/L.
For `CCOC(=O)c1c(CS(=O)(=O)c2ccccc2)n(C)c2cc(-c3cccnc3)c(O)c(CNC)c12` [MC-214, 1-methyl-2-phenylsulfonylmethyl-3-carbethoxy-4-methylaminomethyl-5-hydroxy-6-pyridinyl-3 indole dihydrochloride] the same measures were 10.2 ± 0.8 mmol/L and 9.9 ± 0.7 mmol/L.
For `CCOC(=O)c1c(CSc2ccccc2)n(C)c2cc(-c3cccnc3)c(O)c(CN(C)C)c12` [MC-215, 1-methyl-2-phenylthiomethyl-3-carbethoxy-4-dimethylaminomethyl-5-hydroxy-6-pyridinyl-3 indole] the same measures were 5.6 ± 0.2 mmol/L and 5.4 ± 0.3 mmol/L.
For `CCOC(=O)c1c(CSc2ccccc2)n(C)c2cc(C#N)c(O)c(CN(C)C)c12` [MC-216, 1-methyl-2-phenylthiomethyl-3-carbethoxy-4-dimethylaminomethyl-5-hydroxy-6-cyano indole], the “Glucose content, mmol/l, in 10 days” value in test [1] (setting [3]) is 8.4 ± 0.4 mmol/L. For the same compound, in test [1] (setting [4]), the “Glucose content, mmol/l, in 20 days” value was 8.1 ± 0.4 mmol/L.
For `CCOC(=O)c1c(C[S+]([O-])Cc2ccccc2OC)n(C)c2cc(Br)c(O)c(CNC(=N)N)c12` (stereo not drawn) [MC-218, 1-methyl-2-(o-methoxy)-benzylsulfinylmethyl-3-carbethoxy-4-guanidinomethyl-5-hydroxy-6-bromoindole hydrochloride] the same measures were 7.2 ± 0.4 mmol/L and 7.1 ± 0.4 mmol/L.
Turning to `CCOC(=O)c1c(CSCc2ccccc2)n(C2CC2)c2cc(Br)c(O)c(CNC(=N)N)c12` [MC-219, 1-cyclopropyl-2-benzylthiomethyl-3-carbethoxy-4-guanidinomethyl-5-hydroxy-6-bromoindole], in test [1] (rat, in vivo), the “Glucose content, mmol/l, in 10 days” value was 9.3 ± 0.6 mmol/L and the “Glucose content, mmol/l, in 20 days” value was determined as 9.0 ± 0.5 mmol/L.
For the compound `CCOC(=O)c1c(C[S+]([O-])Cc2ccc(F)cc2)n(C)c2cc(Br)c(O)c(CN3CCOCC3)c12` (stereo not drawn) [MC-220, 1-methyl-2-(p-fluor)-benzylsulfinylmethyl-3-carbethoxy-4--4-morpholinomethyl-5-hydroxy-6-bromoindole hydrochloride], the “Glucose content, mmol/l, in 10 days” value in test [1] (setting [3]) came out at 5.9 ± 0.2 mmol/L. The “Glucose content, mmol/l, in 20 days” value in test [1] (setting [4]) is 5.8 ± 0.2 mmol/L.
For `CCOC(=O)c1c(C[S+]([O-])Cc2ccc(F)c(F)c2)n(C2CC2)c2cc(Br)c(O)c(CN3CCN(C)CC3)c12` (stereo not drawn) [MC-221, 1-cyclopropyl-2-(3,4-difluor)benzylsulfinyl-methyl-3-carbethoxy-4-(N-methyl)-piperazinomethyl-5-hydroxy-6-bromoindole dihydrochloride] the same measures were 7.3 ± 0.4 mmol/L and 7.2 ± 0.4 mmol/L.
For `CCOC(=O)c1c(CS(=O)(=O)c2ccccc2)n(C)c2cc(Br)c(O)c(CN(C)C)c12` [MC-222, 1-methyl-2-phenylsulfonylmethyl-3-carbethoxy-4-dimethylaminomethyl-5-hydroxy-6-bromoindole] the same measures were 6.4 ± 0.3 mmol/L and 6.2 ± 0.3 mmol/L.
For `CCOC(=O)c1c(C[S+]([O-])c2ccccc2)n(C)c2cc(Br)c(O)c(CN(C)C)c12` (stereo not drawn) [MC-223, 1-methyl-2-phenylsulfinylmethyl-3-carbethoxy-4-dimethylaminomethyl-5-hydroxy-6-bromoindole] the same measures were 8.4 ± 0.6 mmol/L and 8.2 ± 0.6 mmol/L.
Consider `CCOC(=O)c1c(C[S+]([O-])c2ccccc2)n(C)c2cc(Br)c(O)cc12` (stereo not drawn) [MC-225, 1-methyl-2-phenylsulfinylmethyl-3-carbethoxy-5-hydroxy-6-bromoindole], for which the “Glucose content, mmol/l, in 10 days” value in test [1] (setting [3]) is 8.2 ± 0.5 mmol/L. Besides, in test [1] (setting [4]), the “Glucose content, mmol/l, in 20 days” value turned out to be 7.9 ± 0.4 mmol/L.
